Test results as given in US20240392302A1, “METHOD FOR DETECTING AND QUANTIFYING RNA” (FLUORESCENCE DIAGNOSIS (SHANGHAI) BIOTECH COMPANY LTD., priority 2021, published 2024).

Test system: F30-N16-1 RNA aptamer molecules
Assay: Binding of F30-N16-1 RNA aptamer molecules with different fluorescent molecules (fluorescence spectrum, activation multiple)
Assay type: biochemical
Details: for Maximum emission peak (nm) / Maximum excitation peak (nm): complex with F30-N16-1; for Activation Multiple: fluorophore with F30-N16-1
Procedure: Nucleic acid aptamer molecules of N16 or N16 mutants were prepared by using the commonly-used experimental method (I), 2.5 μM of nucleic acid aptamer molecules and 0.5 μM of fluorophore molecules were incubated in a detection buffer (40 mM of HEPES, pH 7.4, 125 mM of KCl, 5 mM of MgCl2, 5% DMSO), and the maximum excitation peak and the maximum emission peak of the fluorescence of the nucleic acid aptamer-fluorophore molecular complex were detected with Synergy Neo2 multifunctional enzyme-labeler. Synergy Neo2 multifunctional enzyme-labeler was used again to detect fluorescence intensity of the nucleic acid aptamer-fluorophore molecular complex under its maximum excitation and emission conditions, the control sample ([…] of fluorophore molecules without nucleic acid aptamer) was also measured under the same conditions, and the ratio of fluorescence intensity was calculated. For example, as for fluorescence of the complex formed by 2.5 μM of N16-1 nucleic acid aptamer and 0.5 μM of I-5-14 fluorophore molecules, the maximum excitation peak is 512 nm and the maximum emission peak is 574 nm. It was detected by the Synergy Neo2 multifunctional enzyme-labeler that the fluorescence intensity of the complex at an excitation condition of 512±10 nm and an emission condition of 574 nm±10 nm was 49,088, while the fluorescence intensity of the control (0.5 μM of I-5-14 fluorophore molecules) under the same detection conditions was 399, so the activation multiple of N16-1 nucleic acid aptamer to I-5-14 fluorophore molecules was 123.
F30-N16-1 RNA aptamer molecules were prepared by using the commonly-used experimental method (I), and were used for detecting basic properties, including fluorescence spectrum and fluorescence activation multiple, of the binding of I-5-14 analogues with N16.

In the case of `S=C1NC(=S)/C(=C/c2cc3c4c(c2)CCCN4CCC3)S1` [I-5-48], the “Maximum emission peak (nm)” value is reported as 675 nm, the “Maximum excitation peak (nm)” value is reported as 579 nm and the “Activation Multiple” value is reported as 6.

For `CN1C(=O)/C(=C/c2cc3c(s2)-c2sc(N(CCO)CCO)cc2C3(C)C)SC1=S` [I-5-84], the “Maximum emission peak (nm)” value was 737 nm, the “Maximum excitation peak (nm)” value was 685 nm and the “Activation Multiple” value was 6.

`CN(C)c1ccc(/C=C2\SC(=O)NC2=S)cc1` [I-5-21] was tested, and the “Maximum emission peak (nm)” value was 605 nm, the “Maximum excitation peak (nm)” value was 569 nm and the “Activation Multiple” value was 24.

With `CN(CCO)c1ccc(-c2ccc(/C=C3\SC(=O)NC3=O)s2)s1` [I-5-62] the “Maximum emission peak (nm)” value was 689 nm, the “Maximum excitation peak (nm)” value was 529 nm and the “Activation Multiple” value was 256.

In the case of `Cc1cc(N(C)CCNC(=O)CCOCCOCCO)ccc1/C=C1\SC(=O)NC1=S` [I-5-27], the “Maximum emission peak (nm)” value is reported as 603 nm, the “Maximum excitation peak (nm)” value is reported as 565 nm and the “Activation Multiple” value is reported as 11.

In the case of `CN1C(=O)/C(=C/c2cc3sc(N(CCO)CCO)cc3s2)NC1=S` [I-5-60], the “Maximum emission peak (nm)” value is reported as 626 nm, the “Maximum excitation peak (nm)” value is reported as 552 nm and the “Activation Multiple” value is reported as 8.

For `CN1C(=O)/C(=C/c2ccc3c(c2)SCCN3C)SC1=S` [I-5-31], the “Maximum emission peak (nm)” value was 610 nm, the “Maximum excitation peak (nm)” value was 503 nm and the “Activation Multiple” value was 125.

For `CN1C(=O)/C(=C/c2cc3c(s2)-c2ccc(N(CCO)CCO)cc2C3(C)C)SC1=S` [I-5-80], the “Maximum emission peak (nm)” value was 743 nm, the “Maximum excitation peak (nm)” value was 686 nm and the “Activation Multiple” value was 7.

In the case of `CN(C)c1ccc(/C=C2\SC(=O)NC2=O)s1` [I-5-11], the “Maximum emission peak (nm)” value is reported as 524 nm, the “Maximum excitation peak (nm)” value is reported as 493 nm and the “Activation Multiple” value is reported as 9.

In the case of `CC1=CC(C)(C)N(C)c2ccc(/C=C3\SC(=S)NC3=O)cc21` [I-5-41], the “Maximum emission peak (nm)” value is reported as 612 nm, the “Maximum excitation peak (nm)” value is reported as 517 nm and the “Activation Multiple” value is reported as 85.

`Nc1ccc2nc(/C=C3\SC(=S)NC3=S)sc2c1` [I-5-72] was tested, and the “Maximum emission peak (nm)” value was 721 nm, the “Maximum excitation peak (nm)” value was 636 nm and the “Activation Multiple” value was 14.

`O=C1NC(=O)/C(=C/c2cc3c4c(c2)CCCN4CCC3)S1` [I-5-49] was tested, and the “Maximum emission peak (nm)” value was 539 nm, the “Maximum excitation peak (nm)” value was 469 nm and the “Activation Multiple” value was 1025.

With `CN(C)c1ccc2c(c1)C(C)(C)c1cc(/C=C3\SC(=O)NC3=O)ccc1-2` [I-5-74] the “Maximum emission peak (nm)” value was 691 nm, the “Maximum excitation peak (nm)” value was 635 nm and the “Activation Multiple” value was 14.

For `CN1C(=O)/C(=C/c2ccc(N(C)CCO)cc2)NC1=S` [I-5-18], the “Maximum emission peak (nm)” value was 545 nm, the “Maximum excitation peak (nm)” value was 473 nm and the “Activation Multiple” value was 57.

For `CN(CCO)c1cc2sc(/C=C3\SC(=S)NC3=S)cc2s1` [I-5-58], the “Maximum emission peak (nm)” value was 725 nm, the “Maximum excitation peak (nm)” value was 692 nm and the “Activation Multiple” value was 1422.

In the case of `CN1C(=O)S/C(=C\c2nc3ccc(N(C)CCO)cc3s2)C1=O` [I-5-71], the “Maximum emission peak (nm)” value is reported as 627 nm, the “Maximum excitation peak (nm)” value is reported as 471 nm and the “Activation Multiple” value is reported as 6.

With `CN(CCO)c1cc2sc(/C=C3\OC(=O)NC3=O)cc2s1` [I-5-55] the “Maximum emission peak (nm)” value was 627 nm, the “Maximum excitation peak (nm)” value was 513 nm and the “Activation Multiple” value was 14.

In the case of `CN1CCOc2cc(/C=C3\SC(=S)N(CCC(=O)O)C3=S)ccc21` [I-5-38], the “Maximum emission peak (nm)” value is reported as 647 nm, the “Maximum excitation peak (nm)” value is reported as 545 nm and the “Activation Multiple” value is reported as 7.

In the case of `CN1CCc2cc(/C=C3\SC(=O)NC3=O)ccc21` [I-5-29], the “Maximum emission peak (nm)” value is reported as 525 nm, the “Maximum excitation peak (nm)” value is reported as 453 nm and the “Activation Multiple” value is reported as 14.

With `CN(C)c1ccc(/C=C2\SC(=S)NC2=S)cc1` [I-5-22] the “Maximum emission peak (nm)” value was 657 nm, the “Maximum excitation peak (nm)” value was 613 nm and the “Activation Multiple” value was 126.

For `CN(CCO)c1ccc(-c2ccc(/C=C3\SC(=S)NC3=O)s2)cc1` [I-5-61], the “Maximum emission peak (nm)” value was 677 nm, the “Maximum excitation peak (nm)” value was 483 nm and the “Activation Multiple” value was 6.

In the case of `CN(C)c1ccc(/C=C2\NC(=S)NC2=O)cc1` [I-5-24], the “Maximum emission peak (nm)” value is reported as 543 nm, the “Maximum excitation peak (nm)” value is reported as 473 nm and the “Activation Multiple” value is reported as 7.
